“Also recorded” adds a separate entry of the source.
Legend:
DRGs [1] = assay: G-protein/GPCR inhibitors in NGF withdrawal-induced degeneration in DRGs; assay type: cell-based
Protocol: The assays described herein identified several inhibitors of G-proteins and G-protein coupled receptors (GPCRs) that decrease degeneration in neurons. Experiments were performed in DRGs to verify the role of G-proteins and GPCRs in degeneration pathways. The experimental protocols used in these experiments are the same as those described in Example 14. Pertussis toxin and SCH 202676 were purchased from Tocris Bioscience.

[2] = test system: dorsal spinal cord explants; assay: dorsal spinal cord (DSC) explant degeneration; assay type: cell-based; conditions: 3.4 μM, 11.1 μM, 33.3 μM and 100 μM (FIG. 37)
From the text: DSCs grow out axons over a period of days, but if they are not rescued with the addition of a survival factor, they will eventually degenerate.

DRGs [3] = assay: Campenot chamber local axon degeneration, anti-NGF in axon compartment; assay type: cell-based, mouse; conditions: for formation of varicosities in locally NGF-deprived axons: axon inhibitors added to axon compartment: 10 μM AG555, 30 μM SB239; for Axon Compartment (axon protected when inhibitor is in axon compartment) / Cell Body Compartment (axon protected when inhibitor is in cell body compartment): anti-NGF in axon compartment, 28 hours
Protocol: Teflon dividers (Tyler Research) were cleaned by washing in water and wiping them clean of any residual grease. Dividers were then soaked in Nochromix (Godax Laboratories)/sulfuric acid overnight, rinsed five times in distilled and autoclaved water (SQ water), boiled for 30 minutes, and then air-dried before use.
Mouse laminin (5 μg/ml in sterile filtered water; Invitrogen) was added to PDL coated 35 mm dishes (BD Biosciences) and they were incubated for 1 hour at 37° C., followed by two rinses in SQ water. The dishes were vacuum-dried and then air-dried in a laminar flow hood for 15 minutes. Prepared dishes were then scored with a pin rake (Tyler Research). […] High vacuum grease (VWR) was added to each Teflon divider under a dissection scope. The laminin coated PDL dishes were inverted and dropped onto the Teflon divider, with additional pressure added by use of a toothpick in the non-track-containing regions. Dishes were incubated for 1 hour at 37° C. Five hundred microliters of NBM+MC (50 ng/ml NGF) solution was added to each of the side compartments, and a grease barrier was added in front of the center cell slot.
Free E13.5 spinal cords were dissected from mouse embryos and placed into NBM+MC (25 ng/ml NGF) solution. DRGs were detached from the spinal cord with a tungsten needle. An NBM+MC-lubricated P200 pipette was used to move DRGs into a 1.5 ml tube. DRGs were pelleted with a tabletop centrifuge for 30 seconds. The supernate was discarded and 0.05% Trypsin/EDTA (cold) was added. The pellet was resolubilized with a pipette and incubated at 37° C. for 15 minutes with constant agitation (650 RPM). The sample was again centrifuged and the supernate discarded. The pellet was resuspended in warm NBM+MC (50 ng/ml NGF) solution and triturated with a flamed glass pipette 20 times, followed by trituration with a fire-bored glass pipette another 20 times. The samples were again centrifuged and the resulting pellets were resuspended in 0.5 ml NBM+MC (50 ng/ml NGF) solution. The cells were diluted to a final concentration of 2.5×10^6 cells/ml. The cell suspensions were loaded into a 1 ml syringe with a 22 gauge needle. The center slot of the Campenot divider was filled using the syringe (to a volume of at least 50 μl). The Campenot chamber was incubated overnight at 37° C. 2.5 ml NGF+MC (50 ng/ml NGF) solution was added to the center compartment and the grease gate was removed. The outer medium (cell body compartment) was replaced after three days with 2.5 ml NBM+MC medium (with 25 ng/ml NGF). After five days in culture, one distal compartment was washed three times with warmed NBM+MC (no NGF) solution. After the third wash, 500 μl NBM+MC (no NGF) solution was added to the axon compartment in combination with either 0.5% DMSO or an inhibitor. The cell body compartment was replaced with 2.5 ml NBM+MC medium (with 25 ng/ml NGF) containing either 0.5% DMSO or inhibitor.
After 28 hours of anti-NGF antibody treatment, 8% PFA/30% sucrose solution (see above) was added directly to the culture medium at a 1:1 dilution and incubated for 30 minutes. The Teflon divider was removed after the first 15 minutes of addition. The system was washed once with 2.5 ml PBS prior to immunostaining. Neurons were blocked in 5% BSA/0.2% triton in PBS for 30 minutes. The primary antibody Tuj1 (Covance) was added to a final dilution of 1:1000 in PBS containing 2% BSA and incubated overnight at 4° C. The dish was washed once with PBS. […] The dish was washed twice with PBS, and a 22×22 mm coverslip (VWR) was added with 350 μl of fluoromount G (Electron Microscopy Sciences). The neurons were visualized by use of a fluorescence microscope.
As described above, E13.5 DRGs were isolated and grown for 5 days in a Campenot chamber.

[4] = test system: cerebellar granule neurons (CGNs); assay: serum deprivation/KCl reduction-induced degeneration; assay type: cell-based, mouse; conditions: 5 mM KCl, 24 hours
Protocol: Kinase inhibitors (inhibitors of GSK3, JNK, EGFR, p38, and CaMKK) were tested for their capacity to protect cultured cerebellar granule neurons (CGNs) following serum deprivation/KCl reduction. Briefly, CGNs isolated from P7 mouse brain were cultured on PDL- and laminin-coated 96-well tissue culture dishes in medium containing serum and potassium (Basal Medium Eagles including 29 mM KCl and 10% FBS) at 37° C. After 24 hours in culture, cells were switched to “deprivation” medium (Basal Medium Eagles including 5 mM KCl), alone or in combination with various small molecule inhibitors as shown in Table 8. After a further 24 hours in culture, the neurons were fixed with 4% paraformaldehyde and stained with a neuronal marker (anti-class III β-Tubulin, Covance). Image acquisition was performed using the ImageXpress automated imaging system (Molecular Devices).

[5] = test system: heregulin induced tyrosine phosphorylation in MDA-MB-453 cells; conditions: published source (footnote b), read-out: Cellular IC50; cited from earlier work
[6] = test system: protein tyrosine phosphorylation in 3T3-Her2 cells; conditions: published source (footnote c), read-out: Cellular IC50; cited from earlier work
[7] = test system: dorsal root ganglion neurons; assay: EGFR ligand added to neurons maintained in NGF: axon degeneration; assay type: cell-based, mouse; conditions: 100 μg/mL EGF
Protocol: (§1) Dorsal Root Ganglia (DRG) immunoblots were prepared as follows. Primary cells used in the experiments were Charles River CD-1 E13 Dorsal Root Ganglia (DRG). The cells were maintained in N3/F12 (+25 ng/ml NGF) medium (Ham's F12 (23 ml), N3 supplement (1 ml), glucose (1 ml of 1 M glucose stock), 25 ng/ml Nerve Growth Factor 2.5 S, mouse (Roche 11362348001) in Ham's F12 (stock: 50 μg/ml −80° C.), which was filter-sterilized prior to use). The experiments also employed Triton lysis buffer (20 mM Tris pH 7.5, 150 mM NaCl, 0.1% Triton-X100, 100× Phosphatase inhibitor cocktail I (added fresh), 100× Phosphatase inhibitor cocktail II (added fresh), 1 tablet/10 ml Protease inhibitor tablet (added fresh)).
DRG explants were prepared on Day 0. Embryo dissections were carried out in L15 medium (dissection tools were soaked in 70% isopropanol, and dishes were set up on ice: 10 cm dishes (4 embryos per dish) and one 6 cm dish for spinal cords). E13.5 spinal cords were extracted into DMEM+10% FBS. 5×20 DRGs were detached from the spinal cord. 8 well slides were filled with 250 μl N3/F12 (25 ng/ml NGF)+7 μM cytosine arabinoside. […]
The goal of these experiments was to see if activation of EGFR by EGF would be sufficient to drive degeneration. […] To ensure that EGF is capable of activating EGFR/ErbBs in the neuronal cultures used in these assays, ERK activation was assessed (ERK is a downstream target of EGFR).

ERK = ERK activation by EGFR ligand, Western blot; assay type: cell-based, mouse; conditions: 100 μg/mL EGF, 30 minutes to 1 hour
Protocol: as §1
DRG explants were prepared on Day 0. Embryo dissections were carried out in L15 medium (dissection tools were soaked in 70% isopropanol, and dishes were set up on ice: 10 cm dishes (4 embryos per dish) and one 6 cm dish for spinal cords). E13.5 spinal cords were extracted into DMEM+10% FBS. […]
Immunoblotting was carried out by aspiration of media with a pipette tip, washing twice with ice-cold sterile PBS, and removal of all PBS using an aspirator with a pipette tip or kimwipes. […] Quantification was carried out by choosing a background method and standard bands that minimize negative/counter-intuitive values: i.e., top/bottom, right/left, user-defined (user-defined). […]

[8] = inhibitor 30 μM, listed as SB239
[9] = inhibitor 30 μM, listed as SB239063

## CN=c1nc(-c2ccccc2)n(-c2ccccc2)s1 [SCH 202676]
DRGs [1]; 0.1 μM, 1 μM, 10 μM or 100 μM (FIGS. 49 and 50)
  NGF withdrawal-induced degeneration in DRGs: decreases NGF withdrawal-induced degeneration in DRGs

## Pertussis toxin
DRGs [1]; 0.01 μg/mL, 0.1 μg/mL or 1 μg/mL (FIG. 51)
  degeneration in neurons following NGF withdrawal: decreases degeneration in neurons following NGF withdrawal

## C#Cc1cccc(Nc2ncnc3cc(OCCOC)c(OCCOC)cc23)c1 [Tarceva, N-(3-ethynylphenyl)-6,7-bis(2-methoxyethoxy)quinazolin-4-amine]
[2]
  degeneration in dorsal spinal cord explants: delay this degeneration program; also recorded: blocks degeneration in dorsal spinal cord explants

## C=C/C=C(\C=C)CCCNC(=O)/C(C#N)=C/c1ccc(O)c(O)c1 [AG 555]
DRGs [3]
  formation of varicosities in locally NGF-deprived axons: fewer varicosities
DRGs [3]; inhibitor 10 μM
  Axon Compartment (axon protected when inhibitor is in axon compartment): did not degenerate; also recorded: protected from local degeneration; also recorded: Yes (4)
  Cell Body Compartment (axon protected when inhibitor is in cell body compartment): failed to prevent degeneration; also recorded: No (4)
[4]; inhibitor 1 μM or 10 μM
  protection of cerebellar granule neurons from serum deprivation/KCl reduction: protect cerebellar granule neurons from serum deprivation/KCl reduction

## C=CC(=O)Nc1ccc2ncnc(Nc3cccc(Br)c3)c2c1 [PD168393]
DRGs [3]; inhibitor 5 μM
  Axon Compartment (axon protected when inhibitor is in axon compartment): Yes (1)
  Cell Body Compartment (axon protected when inhibitor is in cell body compartment): No (1)
[5]
  IC50: 0.005 µM
[6]
  IC50: 100 µM

## COc1nccc(-c2c(-c3ccc(F)cc3)ncn2C2CCC(O)CC2)n1 (centres unmarked) [SB 239063]
DRGs [3]
  formation of varicosities in locally NGF-deprived axons: fewer varicosities
DRGs [3]; inhibitor 5 μM
  Axon Compartment (axon protected when inhibitor is in axon compartment): Yes (1)
  Cell Body Compartment (axon protected when inhibitor is in cell body compartment): No (1)
DRGs [3]; [8]
  Axon Compartment (axon protected when inhibitor is in axon compartment): did not degenerate; also recorded: protected from local degeneration
  Cell Body Compartment (axon protected when inhibitor is in cell body compartment): failed to prevent degeneration
DRGs [3]; [9]
  Axon Compartment (axon protected when inhibitor is in axon compartment): Yes (3)
  Cell Body Compartment (axon protected when inhibitor is in cell body compartment): No (3)
[4]; inhibitor 5 μM
  protection of cerebellar granule neurons from serum deprivation/KCl reduction: protect cerebellar granule neurons from serum deprivation/KCl reduction

## EGF: ErbB ligand (ErbB1) that activates EGFR (NSDSECPLSHDGYCLHDGVCMYIEALDKYACNCVVGYIGERCQYRDLKWWELR; Epidermal growth factor; UniProt P01133 971-1023, looked up)
[7]
  induction of axon degeneration in neurons maintained in NGF: does not cause degeneration; also recorded: does not induce axon degeneration
ERK
  phosphorylation of ERK (ERK activity by Western blot): increased ERK activity; also recorded: induces phosphorylation of ERK

## O=C1c2ccccc2-c2n[nH]c3cccc1c23 [SP600125]
DRGs [3]; inhibitor 5 μM
  Axon Compartment (axon protected when inhibitor is in axon compartment): Yes (1)
  Cell Body Compartment (axon protected when inhibitor is in cell body compartment): Yes (1)
DRGs [3]; inhibitor 10 μM
  Axon Compartment (axon protected when inhibitor is in axon compartment): Yes (1)
  Cell Body Compartment (axon protected when inhibitor is in cell body compartment): Yes (1)
[4]; inhibitor 5 μM
  protection of cerebellar granule neurons from serum deprivation/KCl reduction: protect cerebellar granule neurons from serum deprivation/KCl reduction

— patent US20160279190A1, “MODULATION OF AXON DEGENERATION” (GENENTECH, INC., priority 2008, published 2016)
